Target: T1, FmtA^Δ80 (Staphylococcus aureus, UniProt O50608)
T1 sequence (O50608 81-397): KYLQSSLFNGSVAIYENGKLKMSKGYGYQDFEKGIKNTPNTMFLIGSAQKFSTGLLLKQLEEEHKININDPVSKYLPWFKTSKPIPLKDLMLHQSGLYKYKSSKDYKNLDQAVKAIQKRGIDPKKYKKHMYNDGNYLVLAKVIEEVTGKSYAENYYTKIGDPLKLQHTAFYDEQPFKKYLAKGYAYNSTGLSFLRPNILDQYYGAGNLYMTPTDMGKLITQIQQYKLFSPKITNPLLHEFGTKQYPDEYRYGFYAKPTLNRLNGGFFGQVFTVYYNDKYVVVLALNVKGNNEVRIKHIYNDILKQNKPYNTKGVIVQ
Experiment: isothermal titration calorimetry, one-site model
Format: binding

Kd [µM] | Compound
1.7 | CO/N=C1\CN(c2nc3c(cc2F)c(=O)c(C(=O)O)cn3C2CC2)CC1CN (stereo not shown) [gemifloxacin]
8.56 | NC[C@@H]1O[C@H](O[C@H]2[C@@H](O)[C@H](O[C@@H]3[C@@H](O)[C@H](N)C[C@H](N)[C@H]3O[C@H]3O[C@H](CO)[C@@H](O)[C@H](O)[C@H]3N)O[C@@H]2CO)[C@H](N)[C@@H](O)[C@@H]1O [paromomycin]
11.1 | [H]/N=C(/N)N[C@H]1[C@H](O)[C@@H](O)[C@H](O[C@@H]2O[C@@H](C)[C@](O)(C=O)[C@H]2O[C@@H]2O[C@@H](CO)[C@H](O)[C@@H](O)[C@@H]2NC)[C@@H](N/C(N)=N\[H])[C@@H]1O [streptomycin]
25.8 | NC[C@H]1O[C@H](O[C@H]2[C@H](O)[C@@H](O[C@H]3O[C@H](CO)[C@@H](O)[C@H](N)[C@H]3O)[C@H](N)C[C@@H]2N)[C@H](N)C[C@@H]1O [tobramycin]
